Source: patent publication US6962713B2, “Spot-on formulations for combating parasites” (Merial, priority 1919, dated 2005)
Marks after values point to notes of the source that are not given here.

Key:
[1] = Plasma kinetics of ivermectin after spot-on application at different doses in combination with fipronil to dogs; assay type: in vivo, dog; details: for Cmax, Mean: spot-on with fipronil 10 mg.kg^−1, dogs, mean of 3; for t½, Mean: harmonic mean
Method: This study was undertaken in order to assess the linearity of the percutaneous passage of ivermectin after spot-on application of different doses of ivermectin (100, 250, 500 and 1000 μg.kg^−1) in combination with fipronil (10 mg.kg^−1) to the dog. Furthermore, the possibility of control both heartworms and gastro-intestinal nematodes was evaluated.
Twelve male Beagle dogs (allocated into 4 groups of 3 animals were applied spot-on formulations combining ivermectin (0.1%, 0.25%, 0.5% and 1%) and fipronil (10%) at a dose rate of 0.1 ml.kg^−1 (i.e. 100, 250, 500 and 1000 μg.kg^−1 of ivermectin and 10 mg.kg^−1 of fipronil).
The formulations are as follows: […]
The formulations were applied at one spot onto the skin between the shoulder blades.
Blood samples were collected at intervals up to 56 days post treatment.
The determination of ivermectin was carried out by HPLC after an automated solid/liquid extraction, using fluorescence detection, with limit of quantification of 100 pg.ml^−1. The determination of fipronil and its sulfone metabolite (RM1602) was carried out by HPLC with UV detection, with a limit of quantification of 20 ng.ml^−1 for fipronil and RM1602. Both methods were validated in terms of specificity, extraction recovery, linearity, precision and accuracy.

heartworms = details: Cardomec oral, 6 μg.kg^−1 of ivermectin, dog; known; cited from earlier work
[2] = spot-on with fipronil, dogs, Group I 100 μg.kg^−1 ivermectin
[3] = spot-on with fipronil, dogs, Group I 100 μg.kg^−1 ivermectin, range over dogs
[4] = spot-on with fipronil, dogs, Group II 250 μg.kg^−1 ivermectin
[5] = spot-on with fipronil, dogs, Group II 250 μg.kg^−1 ivermectin, range over dogs
[6] = spot-on with fipronil, dogs, Group III 500 μg.kg^−1 ivermectin
[7] = spot-on with fipronil, dogs, Group III 500 μg.kg^−1 ivermectin, range over dogs
[8] = spot-on with fipronil, dogs, Group IV 1000 μg.kg^−1 ivermectin
[9] = spot-on with fipronil, dogs, Group IV 1000 μg.kg^−1 ivermectin, range over dogs

Substance: ivermectin
- difference in parameters of absorption (Cmax and AUC) between the two studies ([1]; Example 7 versus Example 6, 250 μg.kg^−1 ivermectin spot-on, dogs): > 2 fold
- plasma concentrations of ivermectin compared with Example 6 ([1]; same formulation (0.25% ivermectin, 10% fipronil), same dose 250 μg.kg^−1, dogs): much lower
- Cmax, Mean ([1]; Group I 100 μg.kg^−1 ivermectin): 0.136 ng/mL
- Cmax, Mean ([1]; Group II 250 μg.kg^−1 ivermectin): 0.508 ng/mL
- Cmax, Mean ([1]; Group III 500 μg.kg^−1 ivermectin): 1.064 ng/mL
- Cmax, Mean ([1]; Group IV 1000 μg.kg^−1 ivermectin): 1.802 ng/mL
- AUC (0-Clast), Mean [1, 2]: 382 pg·days/mL
- Tlast, Mean [1, 2]: 7 days
- tmax, Mean [1, 2]: 7 days
- AUC (0-Clast), Range [1, 3]: [0-775] pg.d.ml^−1
- Cmax, Range [1, 3]: [0-235] pg.ml^−1
- Tlast, Range [1, 3]: [5-9] d
- tmax, Range [1, 3]: [5-9] d
- t½, Mean [1, 4]: 9.8 (#) d
- AUC (0-Clast), Mean [1, 4]: 7808 pg·days/mL
- Tlast, Mean [1, 4]: 28 days
- tmax, Mean ([1]; spot-on with fipronil, dogs, Group II 250 μg.kg^−1 ivermectin, aberant value of 21 days not taken into account): 4.5* d
- AUC (0-Clast), Range [1, 5]: [4949-10019] pg.d.ml^−1
- Cmax, Range [1, 5]: [250-723] pg.ml^−1
- tmax, Range [1, 5]: [4-5] d
- t½, Range [1, 5]: [6.4-35.0] d
- t½, Mean [1, 6]: 11.4 (#) d
- AUC (0-Clast), Mean [1, 6]: 17200 pg·days/mL
- Tlast, Mean [1, 6]: 37 days
- tmax, Mean [1, 6]: 5.7 days
- AUC (0-Clast), Range [1, 7]: [9088-23274] pg.d.ml^−1
- Cmax, Range [1, 7]: [410-572] pg.ml^−1
- tmax, Range [1, 7]: [3-7] d
- t½, Range [1, 7]: [9.0-16.5] d
- t½, Mean [1, 8]: 10.2 (#) d
- AUC (0-Clast), Mean [1, 8]: 29711 pg·days/mL
- Tlast, Mean [1, 8]: 40 days
- tmax, Mean [1, 8]: 3.3 days
- AUC (0-Clast), Range [1, 9]: [16759-39734] pg.d.ml^−1
- Cmax, Range [1, 9]: [1669-1966] pg.ml^−1
- tmax, Range [1, 9]: [2-5] d
- t½, Range [1, 9]: [7.6-12.2] d
- mean AUC(0-Clast) ([1]; spot-on with fipronil, dogs, dose of 250 μg.kg^−1): 7808 pg·days/mL
- effective on heartworms (heartworms): 100%
